{"source": "patent US20230104936A1", "about": "“TRPML MODULATORS” (Casma Therapeutics, Inc., priority 2019, published 2023)", "system": "TFEB", "test": "TFEB nuclear translocation assay, HeLa wt cells", "assay_type": "cell-based", "conditions": "Homo sapiens, HeLa, 2 h, 2 hrs compound treatment, Table 1 does not say HeLa wt or TRPML1 KO", "method_in_brief": "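Using 20× epifluorescence of fixed, anti-TFEB-stained HeLa wt cells treated 2 hrs with compound, nuclear versus perinuclear ring intensity was quantified over four fields per well, yielding AC50 values.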", "data": [{"smiles": "O=S(=O)(Nc1cc(Cl)ccc1N1CCCC2(COC2)C1)c1ccc2c(c1)CCC2", "note": "[Compound A-345, N-(5-chloro-2-{2-oxa-6-azaspiro[3.5]nonan-6-yl}phenyl)-2,3-dihydro-1H-indene-5-sulfonamide]", "values": [{"measurement": "AC50", "value": "2.01 to 8", "unit": "µM"}]}, {"smiles": "O=S(=O)(Nc1cc(Cl)ccc1N1CCCC12CCOC2)c1ccc2c(c1)CCC2", "note": "(stereo not drawn) [Compound A-346, N-(5-chloro-2-{7-oxa-1-azaspiro[4.4]nonan-1-yl}phenyl)-2,3-dihydro-1H-indene-5-sulfonamide]", "values": [{"measurement": "AC50", "value": "≤ 2", "unit": "µM"}]}, {"smiles": "O=S(=O)(Nc1cc(Cl)ccc1N1CCCC2(CCCOC2)C1)c1ccc2c(c1)CCC2", "note": "(stereo not drawn) [Compound A-347, N-(5-chloro-2-{2-oxa-8-azaspiro[5.5]undecan-8-yl}phenyl)-2,3-dihydro-1H-indene-5-sulfonamide]", "values": [{"measurement": "AC50", "value": "≤ 2", "unit": "µM"}]}, {"smiles": "CN1CC2(CCN(c3ccccc3NS(=O)(=O)c3ccc(S(C)(=O)=O)cc3)CC2)c2cccnc21", "note": "[Compound A-348, 4-methanesulfonyl-N-(2-{1′-methyl-1′,2′-dihydrospiro[piperidine-4,3′-pyrrolo[2,3-b]pyridin]-1-yl}phenyl)benzene-1-sulfonamide]", "values": [{"measurement": "AC50", "value": "8.01 to 9.99", "unit": "µM"}]}, {"smiles": "Cc1ccc(S(=O)(=O)Nc2ccccc2N2CCN(C(=O)C(O)c3ccccc3)CC2)cc1", "note": "(stereo not drawn) [Compound A-349, N-{2-[4-(2-hydroxy-2-phenylacetyl)piperazin-1-yl]phenyl}-4-methylbenzene-1-sulfonamide]", "values": [{"measurement": "AC50", "value": "≥ 10", "unit": "µM"}]}, {"smiles": "Cc1ccc(S(=O)(=O)Nc2ccccc2N2CCN(C(=O)C(=O)c3ccccc3)CC2)cc1", "note": "[Compound A-350, 4-methyl-N-{2-[4-(2-oxo-2-phenylacetyl)piperazin-1-yl]phenyl}benzene-1-sulfonamide]", "values": [{"measurement": "AC50", "value": "2.01 to 8", "unit": "µM"}]}, {"smiles": "CCS(=O)(=O)c1ccc(S(=O)(=O)Nc2ccccc2N2CCN(C(=O)C(C)(C)C)CC2)cc1", "note": "[Compound A-351, N-{2-[4-(2,2-dimethylpropanoyl)piperazin-1-yl]phenyl}-4-(ethanesulfonyl)benzene-1-sulfonamide]", "values": [{"measurement": "AC50", "value": "≥ 10", "unit": "µM"}]}, {"smiles": "CN(C)S(=O)(=O)c1ccc(S(=O)(=O)Nc2cccc(Cl)c2N2CCN(C(=O)C(C)(C)C)CC2)cc1", "note": "[Compound A-352, N4-{3-chloro-2-[4-(2,2-dimethylpropanoyl)piperazin-1-yl]phenyl}-N1,N1-dimethylbenzene-1,4-disulfonamide]", "values": [{"measurement": "AC50", "value": "2.01 to 8", "unit": "µM"}]}, {"smiles": "CN(C)S(=O)(=O)c1ccc(S(=O)(=O)Nc2ccccc2N2CCC(C(C)(C)C)CC2)cc1", "note": "[Compound A-353, N4-[2-(4-tert-butylpiperidin-1-yl)phenyl]-N1,N1-dimethylbenzene-1,4-disulfonamide]", "values": [{"measurement": "AC50", "value": "≤ 2", "unit": "µM"}]}, {"smiles": "CN(C)S(=O)(=O)c1ccc(S(=O)(=O)Nc2ccccc2N2C3CCC2CN(C(=O)C(C)(C)C)C3)cc1", "note": "[Compound A-354, N4-{2-[3-(2,2-dimethylpropanoyl)-3,8-diazabicyclo[3.2.1]octan-8-yl]phenyl}-N1,N1-dimethylbenzene-1,4-disulfonamide]", "values": [{"measurement": "AC50", "value": "≥ 10", "unit": "µM"}]}, {"smiles": "CN(C)S(=O)(=O)c1ccc(S(=O)(=O)Nc2ccccc2N2CCC(O)(c3ncccc3F)CC2)cc1", "note": "[Compound A-355, N4-{2-[4-(3-fluoropyridin-2-yl)-4-hydroxypiperidin-1-yl]phenyl}-N1,N1-dimethylbenzene-1,4-disulfonamide]", "values": [{"measurement": "AC50", "value": "2.01 to 8", "unit": "µM"}]}, {"smiles": "CN(C)S(=O)(=O)c1ccc(C(Nc2cc(Cl)ccc2N2CCOCC2)C(F)(F)F)cc1", "note": "(stereo not drawn) [Compound A-356, 4-(1-{[5-chloro-2-(morpholin-4-yl)phenyl]amino}-2,2,2-trifluoroethyl)-N,N-dimethylbenzene-1-sulfonamide]", "values": [{"measurement": "AC50", "value": "2.01 to 8", "unit": "µM"}]}, {"smiles": "O=S(=O)(Nc1cc(Cl)ccc1N1CCC2(C1)OCc1ccccc12)c1ccc2c(c1)CCC2", "note": "(stereo not drawn) [Compound A-357, N-(5-chloro-2-{3H-spiro[2-benzofuran-1,3′-pyrrolidin]-1′-yl}phenyl)-2,3-dihydro-1H-indene-5-sulfonamide]", "values": [{"measurement": "AC50", "value": "≥ 10", "unit": "µM"}]}, {"smiles": "CN(C)S(=O)(=O)c1ccc(S(=O)(=O)Nc2ccccc2N2CCC(c3cccc(F)c3C(=O)O)CC2)cc1", "note": "[Compound A-358, 2-(1-{2-[4-(dimethylsulfamoyl)benzenesulfonamido]phenyl}piperidin-4-yl)-6-fluorobenzoic acid]", "values": [{"measurement": "AC50", "value": "≥ 10", "unit": "µM"}]}, {"smiles": "CN(C(=O)C1CCN(c2ccccc2NS(=O)(=O)c2ccc(S(=O)(=O)N(C)C)cc2)CC1)C(C)(C)C", "note": "[Compound A-359, N-tert-butyl-1-{2-[4-(dimethylsulfamoyl)benzenesulfonamido]phenyl}-N-methylpiperidine-4-carboxamide]", "values": [{"measurement": "AC50", "value": "≤ 2", "unit": "µM"}]}, {"smiles": "CN(C(=O)C1(C)CCN(c2ccccc2NS(=O)(=O)c2ccc(S(=O)(=O)N(C)C)cc2)CC1)C(C)(C)C", "note": "[Compound A-360, N-tert-butyl-1-{2-[4-(dimethylsulfamoyl)benzenesulfonamido]phenyl}-N,4-dimethylpiperidine-4-carboxamide]", "values": [{"measurement": "AC50", "value": "≤ 2", "unit": "µM"}]}, {"smiles": "CN(C)S(=O)(=O)c1ccc(S(=O)(=O)Nc2ccccc2N2CCC(C)(C(=O)NC(C)(C)C)CC2)cc1", "note": "[Compound A-361, N-tert-butyl-1-{2-[4-(dimethylsulfamoyl)benzenesulfonamido]phenyl}-4-methylpiperidine-4-carboxamide]", "values": [{"measurement": "AC50", "value": "≤ 2", "unit": "µM"}]}, {"smiles": "O=S(=O)(Nc1cc(Cl)ccc1N1CCCC2(CCCO2)C1)c1ccc2c(c1)CCC2", "note": "(stereo not drawn) [Compound A-362, N-(5-chloro-2-{1-oxa-7-azaspiro[4.5]decan-7-yl}phenyl)-2,3-dihydro-1H-indene-5-sulfonamide]", "values": [{"measurement": "AC50", "value": "≤ 2", "unit": "µM"}]}, {"smiles": "COCCS(=O)(=O)Nc1cccc(Cl)c1N1CCOCC1", "note": "[Compound A-364, N-[3-chloro-2-(morpholin-4-yl)phenyl]-2-methoxyethane-1-sulfonamide]", "values": [{"measurement": "AC50", "value": "≥ 10", "unit": "µM"}]}, {"smiles": "O=S(=O)(Cc1ccon1)Nc1cccc(Cl)c1N1CCOCC1", "note": "[Compound A-365, N-[3-chloro-2-(morpholin-4-yl)phenyl]-1-(1,2-oxazol-3-yl)methanesulfonamide]", "values": [{"measurement": "AC50", "value": "≥ 10", "unit": "µM"}]}, {"smiles": "O=C(Nc1cccc(Cl)c1N1CCOCC1)c1ccc2c(c1)CCC2", "note": "[Compound A-366, N-[3-chloro-2-(morpholin-4-yl)phenyl]-2,3-dihydro-1H-indene-5-carboxamide]", "values": [{"measurement": "AC50", "value": "≥ 10", "unit": "µM"}]}, {"smiles": "COc1cccc(S(=O)(=O)Nc2cccc(Cl)c2N2CCOCC2)c1", "note": "[Compound A-367, N-[3-chloro-2-(morpholin-4-yl)phenyl]-3-methoxybenzene-1-sulfonamide]", "values": [{"measurement": "AC50", "value": "2.01 to 8", "unit": "µM"}]}, {"smiles": "O=S(=O)(Cc1ccc(F)c(Cl)c1)Nc1cccc(Cl)c1N1CCOCC1", "note": "[Compound A-368, N-[3-chloro-2-(morpholin-4-yl)phenyl]-1-(3-chloro-4-fluorophenyl)methanesulfonamide]", "values": [{"measurement": "AC50", "value": "2.01 to 8", "unit": "µM"}]}, {"smiles": "O=S(=O)(Nc1cccc(Cl)c1N1CCOCC1)c1cnn2c1CCCC2", "note": "[Compound A-369, N-[3-chloro-2-(morpholin-4-yl)phenyl]-4H,5H,6H,7H-pyrazolo[1,5-a]pyridine-3-sulfonamide]", "values": [{"measurement": "AC50", "value": "≥ 10", "unit": "µM"}]}, {"smiles": "CN(C)C1Cc2ccccc2C12CCN(c1ccccc1NS(=O)(=O)c1ccc(S(=O)(=O)N(C)C)cc1)CC2", "note": "(stereo not drawn) [Compound A-370, N4-{2-[2-(dimethylamino)-2,3-dihydrospiro[indene-1,4′-piperidin]-1′-yl]phenyl}-N1,N1-dimethylbenzene-1,4-disulfonamide]", "values": [{"measurement": "AC50", "value": "≤ 2", "unit": "µM"}]}, {"smiles": "COc1ccc(CN2C(=O)C(c3ccc(Cl)cc3F)Oc3ccccc32)cc1", "note": "(stereo not drawn) [Compound A-371, 2-(4-chloro-2-fluorophenyl)-4-(4-methoxybenzyl)-2H-benzo[b][1,4]oxazin-3(4H)-one]", "values": [{"measurement": "AC50", "value": "≤ 2", "unit": "µM"}]}, {"smiles": "O=S(=O)(Nc1ccccc1N1CCCC1)c1ccc2c(c1)OCCCO2", "note": "[Compound A-372, N-[2-(pyrrolidin-1-yl)phenyl]-3,4-dihydro-2H-1,5-benzodioxepine-7-sulfonamide]", "values": [{"measurement": "AC50", "value": "2.01 to 8", "unit": "µM"}]}]}
